# Experimental data: patent publication US20240092784A1, “CONDENSED HETEROCYCLIC COMPOUND” (NISSAN CHEMICAL CORPORATION, priority 2020, published 2024)
# Structures can show the parent of a compound that is named as a salt.
# Target: human SPR (Homo sapiens (Human), UniProt P35270)
# Assay: Evaluation Example 2: Measurement of human SPR inhibitory activity (seven concentrations, sepiapterin absorbance at 420 nm)
# Assay type: biochemical
# Details: Evaluation Example 2, seven concentrations 0.14 nM to 100 nM, 240 minutes at room temperature, hydrochloride, read-out: IC50
# Description: Human SPR was prepared as described below. The full-length human SPR (1-261) cDNA was purchased from Eurofins Genomics as an artificially synthesized plasmid containing a DNA sequence optimized for the E. coli expression system so that the sequence of the expressed protein after transcription and translation matches the sequence described in UniprotKB (P35270).
# Linearized insert and vector were prepared by PCR using primers designed for amplification of human SPR cDNA and primers designed to contain the thrombin recognition sequence of pET28a (Novagen) and a polyhistidine tag. Cloning was performed using In-Fusion (registered trademark) HD Cloning Kit (TaKaRa) to thereby construct a human SPR expression plasmid. The resultant human SPR expression plasmid was transformed into BL21 (DE3) competent cells (INVITROGEN).
# The cells were inoculated into LB medium (1% triptone, 0.5% yeast extract, 1% sodium chloride) containing […] of kanamycin, and then precultured at 37° C. overnight. The precultured cells were inoculated into TB medium (1.2% triptone, 2.4% yeast extract, 9.4% dipotassium hydrogen phosphate, 2.2% potassium dihydrogen phosphate, 0.8% glycerin) containing […] of kanamycin, and the cultured at 37° C., to thereby induce SPR expression with 0.5 mM IPTG for four hours. After the induction, the cells were collected by centrifugation at 6,000 G for 30 minutes and washed with PBS, and the washing was discarded. The washed cells were suspended in buffer solution A (20 mM MES, pH 6.5, 100 mM sodium chloride, 1 mM DTT, 5 mM imidazole). Subsequently, the cell suspension was subjected to ultrasonic treatment to thereby homogenize the cells. The cell homogenate was clarified by centrifugation at 30,000 G for 60 minutes and then filtered with a […]. The filtrate was allowed to pass through HisTrapFF 5 mL column (GE Healthcare). The resin was washed with buffer A, and then gradient elution was performed with buffer B (20 mM MES, pH 6.5, 100 mM sodium chloride, 1 mM DTT, 500 mM imidazole). Thrombin was added to a fraction containing the SPR protein, and the mixture was dialyzed in buffer A overnight, to thereby cleave the tag. After removal of the thrombin by with Benzamidine Sepharose 4 FF (GE Healthcare), the resultant product was allowed to pass through the HisTrapFF 5 mL column, to thereby remove the tag, followed by concentration with Amicon Ultra 10,000 NMWL (Merck Millipore). The concentrate was purified by gel filtration using HiLoad 16/60 Superdex 75 pg (GE Healthcare) equilibrated with buffer C (20 mM MES, pH 6.5, 100 mM sodium chloride, 1 mM DTT). The fraction containing SPR protein was concentrated and then cryopreserved at −80° C.
# Human SPR inhibitory activity was measured by using a 384-well low adsorption clear plate (Greiner) with buffer D containing 100 mM Tris-HCl (pH 7.5) (Thermo Fisher Scientific) and 0.01% bovine serum albumin (Sigma). A compound was diluted with DMSO to achieve seven different final concentrations; i.e., 0.14 nM, 0.41 nM, 1.23 nM, 3.7 nM, 11.1 nM, 33 nM, and 100 nM. A 1.5 μL aliquot of the compound solution prepared with DMSO was diluted with 250 μL of buffer D, and the thus-diluted solution was dispensed into the 384-well plate at 20 μL/well. Thereafter, human SPR was diluted with buffer D to 150 ng/mL and then dispensed into the 384-well plate at 20 μL/well. Subsequently, 40 μL of ultrapure water containing 120 μM sepiapterin (produced by the method described in L-Sepiapterin, Heterocycles, 2008, 76, 1329-1335 and WO 2013/168693) and 160 μM NADPH (Nacalai) was added to each well, and then reaction was initiated. The reaction mixture was incubated at room temperature for 240 minutes. Thereafter, in order to determine the amount of sepiapterin, the absorbance at 420 nm was measured by applying the 384-well plate to EnSpire multimode plate reader (Perkin Elmer). The percent inhibition (%) of human SPR by the test compound was calculated by the following formula.
# Sequence of human SPR (P35270 whole entry): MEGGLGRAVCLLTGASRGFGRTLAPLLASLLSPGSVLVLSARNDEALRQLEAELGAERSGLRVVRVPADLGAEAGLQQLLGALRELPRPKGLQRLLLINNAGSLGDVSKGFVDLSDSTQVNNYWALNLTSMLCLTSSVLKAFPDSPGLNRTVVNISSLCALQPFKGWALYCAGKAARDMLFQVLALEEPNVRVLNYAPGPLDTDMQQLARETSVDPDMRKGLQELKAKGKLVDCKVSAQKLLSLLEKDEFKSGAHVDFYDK
row,Compound,IC50
1,"CC(C)(C)Cn1c(=O)c(C(=O)NC2CC2)c(O)n2nc(N)cc12 [Synthesis Example 4, 2-Amino-N-cyclopropyl-7-hydroxy-4-neopentyl-5-oxo-4,5-dihydropyrazolo[1,5-a]pyrimidine-6-carboxamide hydrochloride]",0.9 nM

# Same assay, conditions: Evaluation Example 2, seven concentrations 0.14 nM to 100 nM, 240 minutes at room temperature, read-out: IC50
row,Compound,IC50
1,"Cc1nn2c(O)c(C(=O)NC3CC3)c(=O)n(CC(C)C)c2c1/C=C/C(=O)N1CCC2CC21 (racemic) [compound 609, (E)-3-(3-(2-Azabicyclo[3.1.0]hexan-2-yl)-3-oxoprop-1-en-1-yl)-N-cyclopropyl-7-hydroxy-4-isobutyl-2-methyl-5-oxo-4,5-dihydropyrazolo[1,5-a]pyrimidine-6-carboxamide (racemate)]",1.23 nM
2,"COC(C)Cn1c(=O)c(C(=O)NC2CC2)c(O)n2ncc(/C=C/C(=O)N3CCOCC3)c12 (single isomer, unassigned) [Synthesis Example 384, (E)-N-Cyclopropyl-7-hydroxy-4-(2-methoxypropyl)-3-(3-morpholino-3-oxoprop-1-en-1-yl)-5-oxo-4,5-dihydropyrazolo[1,5-a]pyrimidine-6-carboxamide]",0.82 nM
3,"COC(C)Cn1c(=O)c(C(=O)NC2CC2)c(O)n2ncc(/C=C/C(=O)N3CCOCC3)c12 (single isomer, unassigned) [Synthesis Example 385, (E)-N-Cyclopropyl-7-hydroxy-4-(2-methoxypropyl)-3-(3-morpholino-3-oxoprop-1-en-1-yl)-5-oxo-4,5-dihydropyrazolo[1,5-a]pyrimidine-6-carboxamide]",0.83 nM
4,"CC(Cn1c(=O)c(C(=O)NC2CC2)c(O)n2ncc(/C=C/C(=O)N3CCOCC3)c12)C(F)(F)F (single isomer, unassigned) [Synthesis Example 388, (E)-N-Cyclopropyl-7-hydroxy-3-(3-morpholino-3-oxoprop-1-en-1-yl)-5-oxo-4-(3,3,3-trifluoro-2-methylpropyl)-4,5-dihydropyrazolo[1,5-a]pyrimidine-6-carboxamide]",1.53 nM
5,"CC(Cn1c(=O)c(C(=O)NC2CC2)c(O)n2ncc(/C=C/C(=O)N3CCOCC3)c12)C(F)(F)F (single isomer, unassigned) [Synthesis Example 389, (E)-N-Cyclopropyl-7-hydroxy-3-(3-morpholino-3-oxoprop-1-en-1-yl)-5-oxo-4-(3,3,3-trifluoro-2-methylpropyl)-4,5-dihydropyrazolo[1,5-a]pyrimidine-6-carboxamide]",0.95 nM
6,"CC(C)Cn1c(=O)c(C(=O)NC2CC2)c(O)n2ncc(/C=C/C(=O)N3CCOCC3CC(F)(F)F)c12 (single isomer, unassigned) [compound 550, (E)-N-Cyclopropyl-7-hydroxy-4-isobutyl-5-oxo-3-(3-oxo-3-(3-(2,2,2-trifluoroethyl)morpholino)prop-1-en-1-yl)-4,5-dihydropyrazolo[1,5-a]pyrimidine-6-carboxamide (Isomer]",0.79 nM
7,"CC(C)Cn1c(=O)c(C(=O)NC2CC2)c(O)n2ncc(/C=C/C(=O)N3CCOCC3CC(F)(F)F)c12 (single isomer, unassigned; isomer b) [compound 551, (E)-N-Cyclopropyl-7-hydroxy-4-isobutyl-5-oxo-3-(3-oxo-3-(3-(2,2,2-trifluoroethyl)morpholino)prop-1-en-1-yl)-4,5-dihydropyrazolo[1,5-a]pyrimidine-6-carboxamide (Isomer B)]",0.84 nM
8,"CC(C)Cn1c(=O)c(C(=O)NC2CC2)c(O)n2ncc(C(=O)NCc3ccccn3)c12 [Synthesis Example 215, N6-Cyclopropyl-7-hydroxy-4-isobutyl-5-oxo-N3-(pyridin-2-ylmethyl)-4,5-dihydropyrazolo[1,5-a]pyrimidine-3,6-dicarboxamide]",1.04 nM
9,"CC(C)Cn1c(=O)c(C(=O)NC2CC2)c(O)n2ncc(C(=O)NCc3cccnc3)c12 [Synthesis Example 216, N6-Cyclopropyl-7-hydroxy-4-isobutyl-5-oxo-N3-(pyridin-3-ylmethyl)-4,5-dihydropyrazolo[1,5-a]pyrimidine-3,6-dicarboxamide]",0.78 nM
10,"CC(C)Cn1c(=O)c(C(=O)NC2CC2)c(O)n2ncc(C(=O)NCc3ccncc3)c12 [Synthesis Example 217, N6-Cyclopropyl-7-hydroxy-4-isobutyl-5-oxo-N3-(pyridin-4-ylmethyl)-4,5-dihydropyrazolo[1,5-a]pyrimidine-3,6-dicarboxamide]",0.69 nM
11,"CC(C)Cn1c(=O)c(C(=O)NC2CC2)c(O)n2ncc(C(=O)N[C@@H](C)c3ccccn3)c12 [Synthesis Example 218, (S)-N6-Cyclopropyl-7-hydroxy-4-isobutyl-5-oxo-N3-(1-(pyridin-2-yl)ethyl)-4,5-dihydropyrazolo[1,5-a]pyrimidine-3,6-dicarboxamide]",0.89 nM
12,"CC(C)Cn1c(=O)c(C(=O)NC2CC2)c(O)n2ncc(C(=O)N[C@H](C)c3ccccn3)c12 [Synthesis Example 219, (R)-N6-Cyclopropyl-7-hydroxy-4-isobutyl-5-oxo-N3-(1-(pyridin-2-yl)ethyl)-4,5-dihydropyrazolo[1,5-a]pyrimidine-3,6-dicarboxamide]",0.98 nM
13,"CC(C)Cn1c(=O)c(C(=O)NC2CC2)c(O)n2ncc(C(=O)NCc3cnccn3)c12 [Synthesis Example 220, N6-Cyclopropyl-7-hydroxy-4-isobutyl-5-oxo-N3-(pyrazin-2-ylmethyl)-4,5-dihydropyrazolo[1,5-a]pyrimidine-3,6-dicarboxamide]",0.79 nM
14,"CC(C)Cn1c(=O)c(C(=O)NC2CC2)c(O)n2ncc(C(=O)NCC3CCOCC3)c12 [Synthesis Example 221, N6-Cyclopropyl-7-hydroxy-4-isobutyl-5-oxo-N3-((tetrahydro-2H-pyran-4-yl)methyl)-4,5-dihydropyrazolo[1,5-a]pyrimidine-3,6-dicarboxamide]",0.64 nM
15,"CC(C)Cn1c(=O)c(C(=O)NC2CC2)c(O)n2ncc(C(=O)NCC3CC(F)(F)C3)c12 [Synthesis Example 222, N6-Cyclopropyl-N3-((3,3-difluorocyclobutyl)methyl)-7-hydroxy-4-isobutyl-5-oxo-4,5-dihydropyrazolo[1,5-a]pyrimidine-3,6-dicarboxamide]",0.79 nM

# Same assay, conditions: sepiapterin absorbance, Table 41, read-out: concentration at 50% inhibition of human SPR (IC50)
row,Compound,IC50
1,"Cc1nn2c(O)c(C(=O)NC3CC3)c(=O)n(CC(C)C)c2c1/C=C/C(=O)N1C[C@@H](F)[C@H](F)C1 (single isomer, unassigned; isomer a) [Synthesis Example 755, N-Cyclopropyl-3-((E)-3-(trans-3,4-difluoropyrrolidin-1-yl)-3-oxoprop-1-en-1-yl)-7-hydroxy-4-isobutyl-2-methyl-5-oxo-4,5-dihydropyrazolo[1,5-a]pyrimidine-6-carboxamide (Isomer A)]",0.61 nM
2,"Cc1nn2c(O)c(C(=O)NC3CC3)c(=O)n(CC(C)C)c2c1/C=C/C(=O)N1C[C@@H](F)[C@H](F)C1 (single isomer, unassigned; isomer b) [Synthesis Example 756, N-Cyclopropyl-3-((E)-3-(trans-3,4-difluoropyrrolidin-1-yl)-3-oxoprop-1-en-1-yl)-7-hydroxy-4-isobutyl-2-methyl-5-oxo-4,5-dihydropyrazolo[1,5-a]pyrimidine-6-carboxamide (Isomer B)]",0.71 nM
